Where “and” joins values, the source holds several entries; their conditions need not be identical. Identical values can stand only once.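 Protocol summary: plate cells (96-well), add compound at 5 concentrations, incubate 48 h, interpolate endpoints linearly. Abbreviation: GI50, concentration required for 50% inhibition of growth. TGI denotes the concentration required for complete inhibition of growth.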
Experiments:
Assay in all cases: DTP human tumour cell line panel, 48 h
SK-MEL-28 melanoma = tested on: SK-MEL-28 melanoma
MDA-MB-231 breast = tested on: MDA-MB-231 breast
OVCAR-3 ovarian = tested on: OVCAR-3 ovarian
KM12 colon = tested on: KM12 colon
UACC-62 melanoma = tested on: UACC-62 melanoma
IGROV1 ovarian = tested on: IGROV1 ovarian
OVCAR-5 ovarian = tested on: OVCAR-5 ovarian
HCT-116 colon = tested on: HCT-116 colon
TK-10 renal = tested on: TK-10 renal
HCC-2998 colon = tested on: HCC-2998 colon

Work on `COc1ccc(-c2nc3sccn3c2-c2ccnc(NCCNS(=O)(=O)c3ccc(C(F)(F)F)cc3)n2)cc1` yielded a GI50 (SK-MEL-28 melanoma) of 3.68 µM, a TGI (SK-MEL-28 melanoma) of 55.5 µM and a GI50 (MDA-MB-231 breast) of 1.22 µM. It also gave a TGI (MDA-MB-231 breast) of 42.5 µM, a GI50 (OVCAR-3 ovarian) of 2.03 µM and a TGI (OVCAR-3 ovarian) of over 100 µM. The GI50 (KM12 colon) was 1.36 µM, the TGI (KM12 colon) was 36.2 µM and the GI50 (UACC-62 melanoma) was 0.485 µM. It also gave a TGI (UACC-62 melanoma) of 3.4 µM, a GI50 (IGROV1 ovarian) of 3.18 µM and a TGI (IGROV1 ovarian) of over 100 µM. For the same compound, the GI50 (OVCAR-5 ovarian) was 9.38 µM, the TGI (OVCAR-5 ovarian) was over 100 µM and the GI50 (HCT-116 colon) was 0.729 µM. For the same compound, the TGI (HCT-116 colon) was 4.61 µM, the GI50 (TK-10 renal) was 2.87 µM and the TGI (TK-10 renal) was over 100 µM. For the same compound, the GI50 (HCC-2998 colon) was 4.6 µM and the TGI (HCC-2998 colon) was over 100 µM.
`O=C1/C(=C/c2ccc(Cl)cc2)CN(Cc2cn(CCCNc3ccnc4cc(Cl)ccc34)nn2)C/C1=C\c1ccc(Cl)cc1` was tested, and the GI50 (SK-MEL-28 melanoma) was 1.82 µM, the TGI (SK-MEL-28 melanoma) was 3.41 µM and the GI50 (MDA-MB-231 breast) was 0.757 µM. For the same compound, the TGI (MDA-MB-231 breast) was 2.45 µM, the GI50 (OVCAR-3 ovarian) was 0.56 µM and the TGI (OVCAR-3 ovarian) was 1.85 µM. For the same compound, the GI50 (KM12 colon) was 0.291 µM, the TGI (KM12 colon) was 1.11 µM and the GI50 (UACC-62 melanoma) was 1.77 µM. The TGI (UACC-62 melanoma) was 3.35 µM, the GI50 (IGROV1 ovarian) was 1.29 µM and the TGI (IGROV1 ovarian) was 3.12 µM. It also gave a GI50 (OVCAR-5 ovarian) of 1.26 µM, a TGI (OVCAR-5 ovarian) of 3.06 µM and a GI50 (HCT-116 colon) of 0.305 µM. It also gave a TGI (HCT-116 colon) of 0.833 µM, a GI50 (TK-10 renal) of 1.7 µM and a TGI (TK-10 renal) of 3.15 µM. It also gave a GI50 (HCC-2998 colon) of 0.273 µM and a TGI (HCC-2998 colon) of 0.712 µM.
For `Nc1nc2ccc(CNc3ccc(C(=O)NC(CC(=O)O)C(=O)O)cc3)cc2c(=O)[nH]1` (stereo not given), the GI50 (SK-MEL-28 melanoma) was over 96 µM, the TGI (SK-MEL-28 melanoma) was over 100 µM and the GI50 (MDA-MB-231 breast) was over 100 µM. The TGI (MDA-MB-231 breast) was over 100 µM, the GI50 (OVCAR-3 ovarian) was 16.2 µM and the TGI (OVCAR-3 ovarian) was over 100 µM. It also gave a GI50 (KM12 colon) of 4.3 µM, a TGI (KM12 colon) of over 100 µM and a GI50 (UACC-62 melanoma) of 5.89 µM. It also gave a TGI (UACC-62 melanoma) of over 100 µM, a GI50 (IGROV1 ovarian) of 3.32 µM and a TGI (IGROV1 ovarian) of over 100 µM. For the same compound, the GI50 (OVCAR-5 ovarian) was over 47.2 µM, the TGI (OVCAR-5 ovarian) was over 100 µM and the GI50 (HCT-116 colon) was 0.478 µM. It also gave a TGI (HCT-116 colon) of over 100 µM, a GI50 (TK-10 renal) of over 100 µM and a TGI (TK-10 renal) of over 100 µM. The GI50 (HCC-2998 colon) was 7.39 µM and the TGI (HCC-2998 colon) was over 100 µM.
For `O=C(/C=C(/C=C/c1cccc2[nH]ccc12)OB(F)F)/C=C/c1cccc2[nH]ccc12`, the GI50 (SK-MEL-28 melanoma) was 1.04 µM, the TGI (SK-MEL-28 melanoma) was 2.73 µM and the GI50 (MDA-MB-231 breast) was 1.55 µM. For the same compound, the TGI (MDA-MB-231 breast) was 5.19 µM, the GI50 (OVCAR-3 ovarian) was 0.353 µM and the TGI (OVCAR-3 ovarian) was 1.23 µM. The GI50 (KM12 colon) was 0.949 µM, the TGI (KM12 colon) was 2.54 µM and the GI50 (UACC-62 melanoma) was 0.833 µM. The TGI (UACC-62 melanoma) was 2.97 µM, the GI50 (IGROV1 ovarian) was 0.62 µM and the TGI (IGROV1 ovarian) was 6 µM. For the same compound, the GI50 (OVCAR-5 ovarian) was 1.42 µM, the TGI (OVCAR-5 ovarian) was 3.59 µM and the GI50 (HCT-116 colon) was 0.277 µM. The TGI (HCT-116 colon) was 0.951 µM, the GI50 (TK-10 renal) was 1.93 µM and the TGI (TK-10 renal) was 7.42 µM. It also gave a GI50 (HCC-2998 colon) of 1.91 µM and a TGI (HCC-2998 colon) of 3.63 µM.
`CCOC(=O)C1=C(C)NC2SC(=O)/C(=C\c3cccc(Cl)c3)N2C1c1ccccc1` (stereo not given) was tested, and the GI50 (SK-MEL-28 melanoma) was over 100 µM, the TGI (SK-MEL-28 melanoma) was over 100 µM and the GI50 (MDA-MB-231 breast) was over 100 µM. The TGI (MDA-MB-231 breast) was over 100 µM, the GI50 (OVCAR-3 ovarian) was over 100 µM and the TGI (OVCAR-3 ovarian) was over 100 µM. The GI50 (KM12 colon) was over 100 µM, the TGI (KM12 colon) was over 100 µM and the GI50 (UACC-62 melanoma) was over 100 µM. For the same compound, the TGI (UACC-62 melanoma) was over 100 µM, the GI50 (IGROV1 ovarian) was over 100 µM and the TGI (IGROV1 ovarian) was over 100 µM. The GI50 (OVCAR-5 ovarian) was over 100 µM, the TGI (OVCAR-5 ovarian) was over 100 µM and the GI50 (HCT-116 colon) was over 100 µM. The TGI (HCT-116 colon) was over 100 µM, the GI50 (TK-10 renal) was over 100 µM and the TGI (TK-10 renal) was over 100 µM. For the same compound, the GI50 (HCC-2998 colon) was over 100 µM and the TGI (HCC-2998 colon) was over 100 µM.
With `Cc1c(O)cccc1C(=O)N[C@@H](CSc1ccccc1)[C@H](O)CN1C[C@H]2CCCC[C@H]2C[C@H]1C(=O)NC(C)(C)C` the GI50 (SK-MEL-28 melanoma) was 5.68 µM and 7.33 µM, the TGI (SK-MEL-28 melanoma) was 19.3 µM and 22.2 µM and the GI50 (MDA-MB-231 breast) was 3.24 µM and 5.92 µM. The TGI (MDA-MB-231 breast) was 11.5 µM and 13.7 µM, the GI50 (OVCAR-3 ovarian) was 2.62 µM and 5.24 µM and the TGI (OVCAR-3 ovarian) was 9.46 µM and 16.2 µM. The GI50 (KM12 colon) was 3.45 µM and 4.99 µM, the TGI (KM12 colon) was 10.4 µM and 20.1 µM and the GI50 (UACC-62 melanoma) was 5.79 µM and 5.8 µM. For the same compound, the TGI (UACC-62 melanoma) was 18.8 µM and 17.6 µM, the GI50 (IGROV1 ovarian) was 3.45 µM and 2.62 µM and the TGI (IGROV1 ovarian) was 32 µM and 7.74 µM. For the same compound, the GI50 (OVCAR-5 ovarian) was 8.95 µM and 6.31 µM, the TGI (OVCAR-5 ovarian) was 31.6 µM and 19 µM and the GI50 (HCT-116 colon) was 4.27 µM and 5.97 µM. The TGI (HCT-116 colon) was 16 µM and 17.9 µM, the GI50 (TK-10 renal) was 4.26 µM and 5.89 µM and the TGI (TK-10 renal) was 23.6 µM and 24.5 µM. The GI50 (HCC-2998 colon) was 3.6 µM and 4.97 µM and the TGI (HCC-2998 colon) was 10.5 µM and 13.6 µM.
`c1cc[n+](Cc2c3ccccc3cc3c2ccc2ccccc23)cc1` gave a GI50 (SK-MEL-28 melanoma) of 2.11 µM, a TGI (SK-MEL-28 melanoma) of 5.5 µM and a GI50 (MDA-MB-231 breast) of 6.08 µM. For the same compound, the TGI (MDA-MB-231 breast) was 20 µM, the GI50 (OVCAR-3 ovarian) was 2.6 µM and the TGI (OVCAR-3 ovarian) was 11.4 µM. It also gave a GI50 (KM12 colon) of 3.09 µM, a TGI (KM12 colon) of 11.8 µM and a GI50 (UACC-62 melanoma) of 1.92 µM. For the same compound, the TGI (UACC-62 melanoma) was 3.93 µM, the GI50 (IGROV1 ovarian) was 1.67 µM and the TGI (IGROV1 ovarian) was 5.93 µM. The GI50 (OVCAR-5 ovarian) was 11.1 µM, the TGI (OVCAR-5 ovarian) was 26.8 µM and the GI50 (HCT-116 colon) was 4.77 µM. It also gave a TGI (HCT-116 colon) of 17.1 µM, a GI50 (TK-10 renal) of 8.2 µM and a TGI (TK-10 renal) of 28.2 µM. For the same compound, the GI50 (HCC-2998 colon) was 3.38 µM and the TGI (HCC-2998 colon) was 19.4 µM.
`CC1(C)N=C(N)N=C(N)N1c1ccc(OCC(=O)Nc2ccc(S(=O)(=O)F)cc2Cl)c(Cl)c1` gave a GI50 (SK-MEL-28 melanoma) of 37.6 µM, a TGI (SK-MEL-28 melanoma) of over 100 µM and a GI50 (MDA-MB-231 breast) of 54.4 µM. For the same compound, the TGI (MDA-MB-231 breast) was over 100 µM, the GI50 (OVCAR-3 ovarian) was 5.34 µM and the TGI (OVCAR-3 ovarian) was over 100 µM. The GI50 (KM12 colon) was 4.63 µM, the TGI (KM12 colon) was over 100 µM and the GI50 (UACC-62 melanoma) was 1.16 µM. The TGI (UACC-62 melanoma) was over 100 µM, the GI50 (IGROV1 ovarian) was 0.42 µM and the TGI (IGROV1 ovarian) was over 100 µM. For the same compound, the GI50 (OVCAR-5 ovarian) was over 100 µM, the TGI (OVCAR-5 ovarian) was over 100 µM and the GI50 (HCT-116 colon) was 2.7 µM. For the same compound, the TGI (HCT-116 colon) was over 100 µM, the GI50 (TK-10 renal) was 15.4 µM and the TGI (TK-10 renal) was over 100 µM. For the same compound, the GI50 (HCC-2998 colon) was 23.2 µM and the TGI (HCC-2998 colon) was over 100 µM.
Work on `COc1ccc(C2=C(c3ccccc3)C(=O)N3CCCC3C2)cc1` (stereo not given) yielded a GI50 (SK-MEL-28 melanoma) of over 62.5 µM, a TGI (SK-MEL-28 melanoma) of over 100 µM and a GI50 (MDA-MB-231 breast) of over 36.1 µM. It also gave a TGI (MDA-MB-231 breast) of over 100 µM, a GI50 (OVCAR-3 ovarian) of 57 µM and a TGI (OVCAR-3 ovarian) of over 100 µM. For the same compound, the GI50 (KM12 colon) was 3.01 µM, the TGI (KM12 colon) was over 100 µM and the GI50 (UACC-62 melanoma) was 1.92 µM. For the same compound, the TGI (UACC-62 melanoma) was over 100 µM, the GI50 (IGROV1 ovarian) was 8.51 µM and the TGI (IGROV1 ovarian) was over 100 µM. It also gave a GI50 (OVCAR-5 ovarian) of over 100 µM, a TGI (OVCAR-5 ovarian) of over 100 µM and a GI50 (HCT-116 colon) of 0.0817 µM. The TGI (HCT-116 colon) was over 100 µM, the GI50 (TK-10 renal) was 12.9 µM and the TGI (TK-10 renal) was over 100 µM. It also gave a GI50 (HCC-2998 colon) of 2.27 µM and a TGI (HCC-2998 colon) of over 55.5 µM.

From PubChem BioAssay (NCI)
